Assay [1] has as its system DU-145 human prostate cancer cells. The assay is described as follows: Antiproliferative assay (WST-1, 96 h), DU-145. As to conditions: for GI50: Homo sapiens, DU-145 cells, 96 h, WST-1, mean of three determinations; for fold more active than the 3′-methoxy derivatives: vs 3′-methoxy derivatives 16 b and 17 b. Type of assay: cell-based. The method, then: (§1) Cell lines: DU-145 (brain metastasis carcinoma of the prostate) and MDA MB-231 (metastatic pleural effusion of breast adenocarcinoma) established human cell lines were obtained from ATCC Global Bioresource Center. Cells were maintained in a 5 % CO2 humidified atmosphere at 37 °C in RPMI-1640 medium, supplemented with 10 % fetal bovine serum, penicillin, (100 U mL^−1), and streptomycin (0.1 mg mL^−1). The effect of drugs on tubule formation was assessed using an angiogenesis kit (TCS-Cellworks).
(§2) Antiproliferative assays: DU-145 and MDA MB-231 cells were seeded into 96-well microtitre plates (5000 cells per well) and treated with compound (10^−9–10^−4 M) or with vehicle control. At 96 h post-treatment, live cell counts were determined by WST-1 cell proliferation assay (Roche, Penzberg, Germany), as per the manufacturer’s instructions. Viability results were expressed as a percentage of mean control values resulting in the calculation of the 50 % growth inhibition (GI50). All experiments were performed in triplicate.
On the technique in general: Formazan colour is commonly taken as a measure of viable cells.

The subject of assay [2] is MDA MB-231 human breast cancer cells. The assay is described as follows: Antiproliferative assay (WST-1, 96 h), MDA MB-231. Type of assay: cell-based. As to conditions: MDA MB-231 cells, WST-1, mean of three determinations. The method, then:
as §1, §2

For assay [3], the system named is HUVECs within a matrix of human diploid fibroblasts of dermal origin. The assay is described as follows: In vitro model of angiogenesis (tubule formation, co-culture). It counts as cell-based. As to conditions: 25 nM and 50 nM, VEGF-stimulated, quantified after 11 days. The method, then:
Compounds 16 f and 17 f were also assayed for anti-angiogenic activity in an in vitro model of angiogenesis, wherein endothelial cells co-cultured in a matrix of human dermal fibroblasts are used to assess anti-angiogenic potential (Figure 2). When stimulated with VEGF the endothelial cells proliferate and migrate through the matrix to form tubule-like structures. The extent of tubule formation was quantified after 11 days as described elsewhere.[14] […] Quantification carried out by calculating total pixel length reflects the lack of tubule formation.
Cell lines: DU-145 (brain metastasis carcinoma of the prostate) and MDA MB-231 (metastatic pleural effusion of breast adenocarcinoma) established human cell lines were obtained from ATCC Global Bioresource Center. […] The effect of drugs on tubule formation was assessed using an angiogenesis kit (TCS-Cellworks).
Anti-angiogenic assays: HUVECs were cultured in a 24-well plate within a matrix of human diploid fibroblasts of dermal origin in optimised medium supplied by the company. […] The extent of tubule formation was then quantified, either manually by eye or using free software available through the National Institutes of Health website (NIH image [Mac version] from http://rsb.info.nih.gov/nih-image/download.html). […] After correcting for background the software counted the number of pixels representing tubules. […]

For assay [4], the system named is Bovine brain tubulin. The assay is described as follows: Tubulin polymerisation (assembly) assay. It counts as biochemical. Conditions: 10 μM tubulin, mean ±SD of at least two determinations; read-out: TP IC50 (tubulin polymerisation). The protocol: (§3) Tubulin assays: Bovine brain tubulin, prepared as described previously,[16] was used in studies presented here. Assembly IC50 values were determined as described in detail elsewhere.[17] Briefly, 1.0 mg mL^−1 (10 μM) tubulin was pre-incubated without GTP with varying compound concentrations for 15 min at 30 °C. Reaction mixtures were placed on ice, and GTP (final concentration, 0.4 mM) was added. The reaction mixtures were transferred to cuvettes, held at 0 °C in a recording spectrophotometer. Baselines were established at 0 °C, and increase in turbidity was followed for 20 min following a rapid (<30 s) jump to 30 °C. Compound concentrations required to decrease the turbidity increase by 50 % were determined. The method for measuring inhibition of the binding of [^3H]colchicine to tubulin was described in detail previously.[18] Reaction mixtures contained 0.1 mg mL^−1 (1.0 μM) tubulin, 5.0 μM [^3H]colchicine, and potential inhibitor at 5.0 μM. […] A minimum of two experiments were performed with each compound.

Assay [5] concerns the target T1, Bovine brain tubulin (Bos taurus, UniProt P81947+Q6B856).
T1 construct: from tissue; host or cells: bovine brain
The assay is described as follows: Inhibition of [3H]colchicine binding to tubulin. Conditions: mean ±SD; for inhibition at 5 µM: 5 μM inhibitor, 1.0 μM tubulin, 5.0 μM [3H]colchicine, read-out: CB [% inhib.] 5 μM inhibitor. The method, then:
as §3

Another assay deals with Leukemia CCRF-CEM. The assay is described as follows: NCI 60-cell line assay, CCRF-CEM. Type of assay: cell-based. Conditions: Homo sapiens, NCI-60 panel, mean of three determinations. The protocol: (§4) Data from seven cell lines are presented along with the mean activity across the whole panel (MGM value). Screening was conducted at concentrations ranging from 10 nM upwards, with maximal activity (where a 50 % growth inhibition was obtained in all cell lines at a concentration of 10 nM) being indicated by an MGM value of 10 nM.

The subject of the next assay is Lung HOP-62. The assay is described as follows: NCI 60-cell line assay, HOP-62. It counts as cell-based. Conditions: Homo sapiens, NCI-60 panel, mean of three determinations. The protocol:
as §4

A further assay concerns Colon HCT-116. The assay is described as follows: NCI 60-cell line assay, HCT-116. It counts as cell-based. As to conditions: Homo sapiens, NCI-60 panel, mean of three determinations. The method, then: as §4
The test system of another assay is CNS SF-539. The assay is described as follows: NCI 60-cell line assay, SF-539. Type of assay: cell-based. Conditions: CNSSF-539; NCI-60 panel, mean of three determinations. The protocol:
as §4

The test system of a further assay is Melanoma UACC-62. The assay is described as follows: NCI 60-cell line assay, UACC-62. It counts as cell-based. As to conditions: Homo sapiens, NCI-60 panel, lowest concentration screened 10 nM. The protocol: as §4
Another assay has as its system Ovarian OVCAR-3. The assay is described as follows: NCI 60-cell line assay, OVCAR-3. It counts as cell-based. Conditions: Homo sapiens, NCI-60 panel, lowest concentration screened 10 nM. The method, then: as §4
A further assay has as its system Renal SN12-C. The assay is described as follows: NCI 60-cell line assay, SN12-C. Type of assay: cell-based. As to conditions: Homo sapiens, SN12C; NCI-60 panel, mean of three determinations. The method, then: as §4
A further assay has as its system NCI 60-cell line panel. The assay is described as follows: NCI 60-cell line assay, mean across whole panel (MGM). Type of assay: cell-based. As to conditions: NCI-60 panel. The protocol:
as §4

The target in the next assay is carbonic anhydrase. The assay is described as follows: Carbonic anhydrase inhibition. It counts as biochemical.
The subject of assay [6] is DU-145 human prostate cancer cells. Also noted: method as in PMID 24124095. As to conditions: DU-145 cells; data taken from the literature ref 8; cited from earlier work.
For assay [7], the system named is MDA MB-231 human breast cancer cells. The arrangement: method as in PMID 24124095. As to conditions: MDA MB-231 cells; data taken from the literature ref 8; cited from earlier work.
On the set-up of assay [8]: method as in PMID 22247790, PMID 24124095. Conditions: THIQ series, cell line not printed ref 7, 8; cited from earlier work.

Read-outs that look alike come from different tables or passages of the source. Where only a bound is given, the exact number is not on record here.

T1 sequence (Q6B856 whole entry): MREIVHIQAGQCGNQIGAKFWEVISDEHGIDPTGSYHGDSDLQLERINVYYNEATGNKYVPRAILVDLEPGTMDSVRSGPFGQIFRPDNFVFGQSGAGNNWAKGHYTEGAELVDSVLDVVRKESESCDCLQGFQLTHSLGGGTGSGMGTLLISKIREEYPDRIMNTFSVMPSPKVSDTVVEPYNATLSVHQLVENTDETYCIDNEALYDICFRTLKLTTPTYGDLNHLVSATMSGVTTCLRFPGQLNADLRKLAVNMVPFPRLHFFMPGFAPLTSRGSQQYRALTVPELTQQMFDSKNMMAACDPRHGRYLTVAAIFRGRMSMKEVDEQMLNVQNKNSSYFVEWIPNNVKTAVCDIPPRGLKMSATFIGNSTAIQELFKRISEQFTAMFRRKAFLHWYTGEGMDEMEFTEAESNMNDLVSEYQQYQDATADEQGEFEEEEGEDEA
T1 sequence (P81947 whole entry): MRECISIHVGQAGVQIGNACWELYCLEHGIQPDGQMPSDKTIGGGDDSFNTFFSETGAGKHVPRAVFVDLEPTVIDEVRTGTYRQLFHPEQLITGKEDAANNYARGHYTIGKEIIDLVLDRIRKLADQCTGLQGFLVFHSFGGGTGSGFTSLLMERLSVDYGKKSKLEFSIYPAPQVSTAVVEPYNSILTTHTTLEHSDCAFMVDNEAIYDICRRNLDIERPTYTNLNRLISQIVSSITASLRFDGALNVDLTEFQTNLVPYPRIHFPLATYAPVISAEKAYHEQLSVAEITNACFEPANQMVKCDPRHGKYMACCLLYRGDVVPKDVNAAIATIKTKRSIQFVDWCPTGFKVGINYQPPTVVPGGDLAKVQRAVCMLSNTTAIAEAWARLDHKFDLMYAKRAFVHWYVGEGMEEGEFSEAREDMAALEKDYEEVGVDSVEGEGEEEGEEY

As usually defined, the GI50 is the concentration giving 50% growth inhibition. A word on the IC50: it is the concentration that gives 50% inhibition. In the case of `COc1cc(OC)cc(C(=O)N2CCc3cc(O)c(OC)cc3C2=O)c1` [16 f, 6-Hydroxy-2-(3,5-dimethoxybenzoyl)-7-methoxy-3,4-dihydroisoquinolin-1(2H)-one], in [1], it took 215 nM to inhibit growth by half (GI50) and the “fold more active than the 3′-methoxy derivatives” value was over 10 fold. The GI50 in assay [2] was 161 nM. Also, the “formation of tubule-like structures” value in [3] is recorded as “almost completely inhibits”. The IC50 with Bovine brain tubulin [4] came out at 1500 ± 100 nM. The inhibition at 5 µM on Bovine brain tubulin [5] was 81 ± 0.7%.

`COc1cc2c(cc1O)CCN(C(=O)c1cc(OC)c(OC)c(OC)c1)C2=O` [16 g, 6-Hydroxy-7-methoxy-2-(3,4,5-trimethoxybenzoyl)-3,4-dihydroisoquinolin-1(2H)-one]: the GI50 stood at 51 nM in assay [1]; 71 nM in assay [2]; 17.1 nM in the assay on Leukemia CCRF-CEM; 29.5 nM in the assay on Lung HOP-62; 21.6 nM in the assay on Colon HCT-116; 10.2 nM in the assay on CNS SF-539. In addition, the GI50 is under 10 nM in the assay on Melanoma UACC-62, under 10 nM with Ovarian OVCAR-3 and 56 nM in the assay with Renal SN12-C. In addition, the “mean activity in the NCI 60-cell line assay” value in the assay with NCI 60-cell line panel was found to be 33 nM. The “MGM (mean concentration that caused 50 % growth inhibition in all 60 cell lines)” value in the assay on NCI 60-cell line panel (all 60 cell lines) turned out to be 0.033 µM. The IC50 with Bovine brain tubulin [4] amounted to 1300 ± 100 nM. Moreover, at Bovine brain tubulin [5], the inhibition at 5 µM stood at 83 ± 2%.

On to `COc1cc(OC)cc(C(=O)N2CCc3cc(OS(N)(=O)=O)c(OC)cc3C2=O)c1` [17 f, 2-(3,5-Dimethoxybenzoyl)-7-methoxy-6-sulfamoyloxy-3,4-dihydroisoquinolin-1(2H)-one], for which the GI50 in [1] is 179 nM; in [2] it was 118 nM. In assay [1], the “fold more active than the 3′-methoxy derivatives” value is recorded as over 10 fold. Moreover, the IC50 at carbonic anhydrase was found to be 890 nM; in the assay on Bovine brain tubulin [4], 1300 ± 10 nM. Moreover, the “formation of tubule-like structures” value in assay [3] was “almost completely inhibits”. Further, the inhibition at 1 µM on Bovine brain tubulin [5] (1 μM inhibitor, read-out: CB [% inhib.] 1 μM inhibitor) was determined as 65 ± 3%. For the same compound, the inhibition at 5 µM on Bovine brain tubulin [5] was found to be 89 ± 0.1%.

In the case of `COc1cc2c(cc1O)CCN(C(=O)c1cc(OC)c(OC)c(OC)c1)C2` [18 c], the values for the GI50 in assay [6] and in assay [7] were 921 nM and 733 nM, respectively.

With `COc1cc2c(cc1OS(N)(=O)=O)CCN(C(=O)c1cc(OC)c(OC)c(OC)c1)C2` [19 c], the GI50 in assay [6] is 1810 nM; in assay [7], 1720 nM.

In the case of `COc1cccc(CN2CCc3cc(OS(N)(=O)=O)c(OC)cc3C2)c1` [compound 2], the GI50 in assay [8] was 2100 nM.

The values above are taken from PMC4114533, “Synthesis, Anti-tubulin and Antiproliferative SAR of Steroidomimetic Dihydroisoquinolinones” (Chemmedchem, 2014).
